# Measurements reported in article PMC7484762 (2020).
# Columns and labels:
# [1] = tested on: WT (ligated F. ulcerans ZTP riboswitch with 3' tether, annealed to biotin-DNA-Cy5) (DNA:RNA, riboswitch) UAUCAGUUAUAUGACUGACGGAACGUGGAAUUAACCACAUGAAGUAUAACGAUGACAAUGCCGACCGUCUGGGCGAACAAGCCUAGAUUGUCGGUUCAUUAGCGGUAUUCCGGAAUUGCCGUAAUCGCG/CGCGATTACGGCAATTCCGGAATACCGCTAATG; experiment: smFRET; details: 150 mM KCl, 10 mM MgCl2; 50 mM HEPES-KOH pH 7.4; thermally refolded with 1 mM ZMP, ~10% bound; vectorially folded 38%
# [2] = tested on: 81-83A (ligated, with 3' tether, annealed to biotin-DNA-Cy5) (DNA:RNA, riboswitch) UAUCAGUUAUAUGACUGACGGAACGUGGAAUUAACCACAUGAAGUAUAACGAUGACAAUGCCGACCGUCUGGGCGAACAAAAAUAGAUUGUCGGUUCAUUAGCGGUAUUCCGGAAUUGCCGUAAUCGCG/CGCGATTACGGCAATTCCGGAATACCGCTAATG; experiment: smFRET after vectorial folding (Rep-X); details: 150 mM KCl, 10 mM MgCl2; 50 mM HEPES pH 7.4; larger bound fraction than WT
# [3] = tested on: 92-94A (ligated, with 3' tether, annealed to biotin-DNA-Cy5) (DNA:RNA, riboswitch) UAUCAGUUAUAUGACUGACGGAACGUGGAAUUAACCACAUGAAGUAUAACGAUGACAAUGCCGACCGUCUGGGCGAACAAGCCUAGAUUGUAAAUUCAUUAGCGGUAUUCCGGAAUUGCCGUAAUCGCG/CGCGATTACGGCAATTCCGGAATACCGCTAATG; experiment: smFRET; details: 150 mM KCl, 10 mM MgCl2; 50 mM HEPES-KOH pH 7.4; thermally refolded; partially responsive
# [4] = tested on: Δterm (ligated F. ulcerans ZTP aptamer with 3' tether, annealed to biotin-DNA-Cy5) (DNA:RNA, riboswitch) UAUCAGUUAUAUGACUGACGGAACGUGGAAUUAACCACAUGAAGUAUAACGAUGACAAUGCCGACCGUCUGGGCGUUCAUUAGCGGUAUUCCGGAAUUGCCGUAAUCGCG/CGCGATTACGGCAATTCCGGAATACCGCTAATG; experiment: smFRET titration (TIRF), Langmuir fit; details: 150 mM KCl, 10 mM MgCl2, 50 mM HEPES-KOH pH 7.4, thermally refolded, Pmax 71%, 1.5 μM after vectorial folding
# [5] = tested on: 81-83, 92-94A (ligated, with 3' tether, annealed to biotin-DNA-Cy5) (DNA:RNA, riboswitch) UAUCAGUUAUAUGACUGACGGAACGUGGAAUUAACCACAUGAAGUAUAACGAUGACAAUGCCGACCGUCUGGGCGAACAAAAAUAGAUUGUAAAUUCAUUAGCGGUAUUCCGGAAUUGCCGUAAUCGCG/CGCGATTACGGCAATTCCGGAATACCGCTAATG; experiment: smFRET; details: 150 mM KCl, 10 mM MgCl2; 50 mM HEPES-KOH pH 7.4; thermally refolded; majority binds
# [6] = tested on: 79-nt RNA ending at A79 (RNA, riboswitch) UAUCAGUUAUAUGACUGACGGAACGUGGAAUUAACCACAUGAAGUAUAACGAUGACAAUGCCGACCGUCUGGGCGAACA; experiment: ITC; details: 150 mM KCl, 10 mM MgCl2; 50 mM HEPES-KOH pH 7.4, 37 °C; apparent; exact value in Supplementary Figure 1b
structure (smiles),measurement,setting,value
NC(=O)c1ncn([C@@H]2O[C@H](COP(=O)(O)O)[C@@H](O)[C@H]2O)c1N,binding,[1],weak
same,binding,[2],yes
same,binding,[3],weak
same,apparent KD,[4],1300 nM
same,binding,[5],yes
same,Kd,[6],~ 1 μM
